Values joined by “and” are separate entries in the source; they are usually repeats but may differ in a detail not shown here. Equal entries are not always repeated.
What was measured:
[1] = target: DPP‐IV (Homo sapiens, UniProt P27487); assay: Plasma DPP-IV activity; type: in vivo; conditions: for Post‐dose DPP‐IV activity over 24 hours: day 0, mean
[2] = 28‐day toxicity study in rats; cited from earlier work
[3] = test system: DPP‐IV; conditions: oral administration of 400 mg; cited from earlier work
[4] = 30 mg i.v. (n = 5), day 0, mean (SD)
[5] = 30 mg s.c. (n = 5), day 0, mean (SD)
[6] = 60 mg s.c. (n = 10), day 0, mean (SD)
[7] = 90 mg s.c. (n = 10), day 0, mean (SD)

DPP‐IV (Homo sapiens, UniProt P27487), sequence (P27487 39-766): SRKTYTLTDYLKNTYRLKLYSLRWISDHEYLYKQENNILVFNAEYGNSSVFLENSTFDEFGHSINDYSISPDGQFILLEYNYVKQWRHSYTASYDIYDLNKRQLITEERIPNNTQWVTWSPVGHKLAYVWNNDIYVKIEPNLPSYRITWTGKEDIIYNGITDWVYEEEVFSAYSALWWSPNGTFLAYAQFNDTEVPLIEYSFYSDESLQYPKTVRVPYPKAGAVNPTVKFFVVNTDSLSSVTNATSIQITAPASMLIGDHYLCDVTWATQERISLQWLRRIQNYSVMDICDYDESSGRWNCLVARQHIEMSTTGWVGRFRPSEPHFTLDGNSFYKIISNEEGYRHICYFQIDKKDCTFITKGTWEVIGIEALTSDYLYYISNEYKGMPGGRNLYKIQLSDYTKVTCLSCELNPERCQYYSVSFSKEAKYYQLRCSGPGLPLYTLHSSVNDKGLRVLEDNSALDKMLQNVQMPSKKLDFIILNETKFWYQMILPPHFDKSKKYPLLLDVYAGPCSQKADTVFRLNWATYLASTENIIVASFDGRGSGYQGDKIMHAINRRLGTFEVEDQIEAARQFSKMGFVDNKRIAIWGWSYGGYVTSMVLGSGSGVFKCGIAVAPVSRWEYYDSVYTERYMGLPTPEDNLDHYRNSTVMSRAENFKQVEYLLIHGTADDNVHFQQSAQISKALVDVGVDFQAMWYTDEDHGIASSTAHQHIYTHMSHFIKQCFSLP

O=C(CN[C@@H]1CCNC1)N1CCC[C@H]1B(O)O [dutogliptin]
Post‐dose DPP‐IV activity over 24 hours ([1]; 30 mg i.v. (n = 5)): 37.83% | AUEC0‐24h [1, 4]: 908 (149) %*h | Lowest DPP‐IV activity [1, 4]: 7.63 (0.95) % | Time to maximum DPP‐IV inhibition ([1]; 30 mg intravenous): 0.5 h | Post‐dose DPP‐IV activity over 24 hours ([1]; 30 mg s.c. (n = 5)): 35.36% | AUEC0‐24h [1, 5]: 849 (74) %*h | Lowest DPP‐IV activity [1, 5]: 8.03 (1.76) % | Time to lowest DPP‐IV activity ([1]; 30 mg subcutaneous): ≤ 2 h | Post‐dose DPP‐IV activity over 24 hours ([1]; 60 mg s.c. (n = 10)): 22.42% | AUEC0‐24h [1, 6]: 538 (44) %*h | Lowest DPP‐IV activity [1, 6]: 7.67 (1.18) % | Time to lowest DPP‐IV activity ([1]; 60 mg subcutaneous): ≤ 2 h | Post‐dose DPP‐IV activity over 24 hours ([1]; 90 mg s.c. (n = 10)): 20.46% | AUEC0‐24h [1, 7]: 491 (86) %*h | Lowest DPP‐IV activity [1, 7]: 7.58 (1.17) % | Time to lowest DPP‐IV activity ([1]; 90 mg subcutaneous): ≤ 4 h | Post‐dose DPP‐IV activity over 24 hours ([1]; 120 mg s.c. (n = 10)): 17.96% | AUEC0‐24h ([1]; 120 mg s.c. (n = 10), day 0, mean (SD)): 431 (93) %*h | DPP‐IV inhibition over 24 hours ([1]; 120 mg s.c. multiple doses, day 6): 86% and > 86% | Maximum AUEC0‐24h ([1]; 120 mg s.c. multiple dosing cohort, day 6, SD: 73): 342 h % | Time to lowest DPP‐IV activity ([1]; 120 mg subcutaneous): ≤ 4 h | DPP‐IV activity reduced to ([1]; all participants receiving 60 mg or more subcutaneously): < 10% | Maximum DPP‐IV inhibition ([1]; all subjects receiving ≥60 mg): > 90% | Lowest DPP‐IV activity ([1]; day 0, subcutaneous administration overall, SD: 1.60): 7.19% | No observed adverse effects level [2]: 30 mg/kg | Inhibition of DPP‐IV activity [3]: approximately 85%

Reference: publication PMC7163368 (British Journal of Clinical Pharmacology, 2020)
